In one assay the test system is OVCAR-3. Nature of the assay: IC50 in OVCAR-3 ovarian cancer cell line. In kind it is cell-based, human. As to the method: MDA-MB435S.luc cells were grown in Leibovitz's L 15 medium, 10% fetal bovine serum, 0.01 mg/ml bovine insulin, 100 IU/ml penicillin, 100 microg/ml streptomycin. The cells were cultured in tight closed flasks. The incubations were conducted using 96 well plates at 10,000 cells per well. Cells were typically seeded into 96 well plates and media was replaced after 48 hours of incubation. Each assay was conducted at increasing concentrations of 0, 0.001, 0.01, 0.05, 0.1, 0.5, 1, 2, 5, 10 and 100 micromolar doses of lytic peptide-binding domain conjugate. Each lytic peptide-binding domain conjugate provided in lyophilized form and was freshly dissolved in saline and added to cells. The duration of incubation was typically 24 h, and cell viability assays were conducted using formazan conversion assays (MTT assay). Controls contained saline or 0.1% triton as reference for 0 and 100% cell death, respectively.
To ascertain the IC50 of various fusion constructs on different human cancer cell lines compared to cisplatinum, IC50 of fusion constructs were evaluated as in Table 3.

In assay [1] the test system is MDA-MB-435S.luc xenograft. Nature of the assay: MDA-MB-435S.luc xenograft, LHRH fusion constructs. The assay is classed as in vivo, Nu/Nu mice. Here is the method:
For LHRH fusion constructs, the mouse xenograft model for breast cancer was used. In brief, Nu/Nu female mice, outbred strain, age 5 weeks (Charles River) were injected subcutaneously with a MDA-MB-435S.luc/Matrigel suspension (1×10^6 cells). Treatment was started on day 21 after tumor cell injection and continued on day 26 and 29. The doses for weekly fusion construct injections were 2, 0.2 and 0.02 mg/kg body weight, given as a bolus single injection. All mice were necropsied 34 days after tumor cell injection-baseline values for tumor weights were obtained by sacrificing 8 mice at treatment start. […] Tumor weights were recorded at necropsy, part of the tumors were frozen at −80° C. for luciferase assay determination.
Characteristics of tumors at necropsy are summarized in FIG. 10: (A) tumor weight, (B) changes of tumor weights compared to baseline, (C) total number of live tumor cells, (D) changes of total live tumor cells compared to baseline, and (E) body weights at baseline and necropsy. Viability of tumor cells was determined at the end of the study when tumors were measured for luciferase activity. Treatment efficacy was calculated as difference between measurements at the beginning of treatment compared to the measurement at the end of study (FIGS. 10B and 10D).

As usually defined, the IC50 is the concentration at which inhibition is half-maximal. In the assay on OVCAR-3, “KFAKFAKKFAKFAKKFAKQHWSYGLRPG [Phor18-LHRH]” returned an IC50 of 3000 ± 500 nM. For the same sequence, the “tumor volume during treatment / 30 days” value in assay [1] (0.02, 0.2, 2 mg/kg weekly) is reported as “smallest tumor volumes”. Also, in assay [1] (mouse, in vivo), the “overall efficacy in reducing tumor weight and live tumor cells (vs other constructs / reference Phor21-βCG-ala)” value is on record as “Equally effective”.

The record behind these values is patent US8318899B2, “Lytic domain fusion constructs and methods of making and using same” (Board of Supervisors of Louisiana State University and …, priority 2008, dated 2012).
